Data as given in PubChem BioAssay (NCI).
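Five concentrations, 48 hours, 96-well plates. The concentration for 50% growth inhibition is given as GI50. At the TGI there is no net growth.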

What follows are compounds tested on 786-0 renal (assay: growth of human tumour cells (NCI), 48 h).

Row | SMILES | GI50 | TGI
1 | COc1cc(/C=C/[N+](=O)[O-])cc(Br)c1OC | 1.95 µM | 3.54 µM
2 | CN(CC(N)=O)C(=O)N(CCCl)N=O | – | > 100 µM
3 | CC(C)=CCC/C(C)=C/CC/C(C)=C/CC/C=C(\C)CC/C=C(\C)CCC(=O)Nc1ccn(C2OC(CO)C(O)C2(F)F)c(=O)n1 (configuration not stated) | < 0.0157 µM | < 0.0341 µM
4 | COc1ccc(-c2cc(=O)c3c(OC)c(OC)c(OC)c(OC)c3o2)cc1 | – | > 100 µM
5 | CC(C)(C)CN1CCn2c(nc3c(N)nccc32)S1 | 21 µM | > 100 µM
6 | COc1ccc2c(c1)OC1=C(C(=O)OC1)C2c1cc(OC)c2c(c1)OCO2 (configuration not stated) | 0.0506 µM | > 100 µM
7 | CC1(C)CCC[C@]2(C)[C@@H](C=O)C(C=O)=CC[C@@H]12 | – | > 100 µM
8 | O=c1[nH]cnc2c(C3NC(CO)C(O)C3O)c[nH]c12 (configuration not stated) | > 100 µM | > 100 µM
9 | CCn1c2ccccc2c2cc(/C=C(/C#N)C(N)=O)ccc21 | 10.6 µM | > 100 µM
10 | CCN1C(=O)N(CC)C2C1NN=c1s/c(=C3\C(=O)N(CCc4ccccc4)c4ccccc43)c(=O)n12 (configuration not stated) | 1.04 µM | 13.5 µM
11 | CN(C)c1ccc(N=Nc2ccncc2)cc1 | – | > 100 µM
12 | CC1(C)N=C(N)N=C(N)N1c1ccc(CCCCc2ccc(S(=O)(=O)F)cc2)c(Cl)c1 | 0.224 µM | 19.3 µM
13 | N#CN1CC[C@H](C(=O)Nc2ncc(-c3ccncc3)s2)C1 | 0.0415 µM | 2.33 µM
14 | Cn1cc(-c2nonc2-c2cn(C)c3ccccc23)c2ccccc21 | 1.63 µM | > 100 µM
15 | COC(=O)c1nc(-c2ccccc2)oc1S(=O)(=O)n1nc(C)cc1N | 12.5 µM | 25.6 µM
16 | CCCCCn1sc(=O)n(Cc2ccc(CNC(=O)OCc3ccc4cccc(O)c4n3)cc2)c1=O | 1.17 µM | 2.89 µM
17 | Cn1cncc1CC1COC(=O)C1C(O)c1ccccc1 (configuration not stated) | – | > 100 µM
18 | CCCCn1c(=O)c2c(nc3n2CCCN3CCc2ccc(OCC(=O)NCCN(CC)CC)cc2)n(CCCC)c1=O | 0.912 µM | 2 µM

What follows are compounds tested on COLO 205 colon (assay: growth of human tumour cells (NCI), 48 h).

Row | SMILES | GI50 | TGI
19 | COc1cc(/C=C/[N+](=O)[O-])cc(Br)c1OC | 2.17 µM | 4.58 µM
20 | CN(CC(N)=O)C(=O)N(CCCl)N=O | – | > 100 µM
21 | CC(C)=CCC/C(C)=C/CC/C(C)=C/CC/C=C(\C)CC/C=C(\C)CCC(=O)Nc1ccn(C2OC(CO)C(O)C2(F)F)c(=O)n1 (configuration not stated) | 0.0982 µM | 12.6 µM
22 | COc1ccc(-c2cc(=O)c3c(OC)c(OC)c(OC)c(OC)c3o2)cc1 | – | > 100 µM
23 | CC(C)(C)CN1CCn2c(nc3c(N)nccc32)S1 | 4.02 µM | 16.3 µM
24 | COc1ccc2c(c1)OC1=C(C(=O)OC1)C2c1cc(OC)c2c(c1)OCO2 (configuration not stated) | 0.031 µM | 0.0908 µM
25 | CC1(C)CCC[C@]2(C)[C@@H](C=O)C(C=O)=CC[C@@H]12 | – | 36.5 µM
26 | O=c1[nH]cnc2c(C3NC(CO)C(O)C3O)c[nH]c12 (configuration not stated) | > 100 µM | > 100 µM
27 | CCn1c2ccccc2c2cc(/C=C(/C#N)C(N)=O)ccc21 | 4.65 µM | > 100 µM
28 | CCN1C(=O)N(CC)C2C1NN=c1s/c(=C3\C(=O)N(CCc4ccccc4)c4ccccc43)c(=O)n12 (configuration not stated) | 0.322 µM | 1.8 µM
29 | CN(C)c1ccc(N=Nc2ccncc2)cc1 | – | > 100 µM
30 | CC1(C)N=C(N)N=C(N)N1c1ccc(CCCCc2ccc(S(=O)(=O)F)cc2)c(Cl)c1 | 0.34 µM | 18.7 µM
31 | N#CN1CC[C@H](C(=O)Nc2ncc(-c3ccncc3)s2)C1 | < 0.0141 µM | 0.045 µM
32 | Cn1cc(-c2nonc2-c2cn(C)c3ccccc23)c2ccccc21 | 2.54 µM | > 100 µM
33 | COC(=O)c1nc(-c2ccccc2)oc1S(=O)(=O)n1nc(C)cc1N | 2.11 µM | 3.92 µM
34 | CCCCCn1sc(=O)n(Cc2ccc(CNC(=O)OCc3ccc4cccc(O)c4n3)cc2)c1=O | 1.59 µM | 3.75 µM
35 | Cn1cncc1CC1COC(=O)C1C(O)c1ccccc1 (configuration not stated) | – | > 100 µM
36 | CCCCn1c(=O)c2c(nc3n2CCCN3CCc2ccc(OCC(=O)NCCN(CC)CC)cc2)n(CCCC)c1=O | 1.78 µM | 7.38 µM

Each compound was assayed on HCC-2998 colon (assay: growth of human tumour cells (NCI), 48 h).

Row | SMILES | GI50 | TGI
37 | COc1cc(/C=C/[N+](=O)[O-])cc(Br)c1OC | 1.71 µM | 3.15 µM
38 | CN(CC(N)=O)C(=O)N(CCCl)N=O | – | > 100 µM
39 | CC(C)=CCC/C(C)=C/CC/C(C)=C/CC/C=C(\C)CC/C=C(\C)CCC(=O)Nc1ccn(C2OC(CO)C(O)C2(F)F)c(=O)n1 (configuration not stated) | 0.9 µM | 23 µM
40 | COc1ccc(-c2cc(=O)c3c(OC)c(OC)c(OC)c(OC)c3o2)cc1 | – | > 100 µM
41 | CC(C)(C)CN1CCn2c(nc3c(N)nccc32)S1 | 13.7 µM | 34.8 µM
42 | COc1ccc2c(c1)OC1=C(C(=O)OC1)C2c1cc(OC)c2c(c1)OCO2 (configuration not stated) | 0.0424 µM | > 35.1 µM
43 | CC1(C)CCC[C@]2(C)[C@@H](C=O)C(C=O)=CC[C@@H]12 | – | 32.7 µM
44 | O=c1[nH]cnc2c(C3NC(CO)C(O)C3O)c[nH]c12 (configuration not stated) | > 100 µM | > 100 µM
45 | CCn1c2ccccc2c2cc(/C=C(/C#N)C(N)=O)ccc21 | 4.22 µM | 25.3 µM
